Measured values: patent US20040023994A1 (priority 2002, published 2004)
Like-named read-outs stand apart in the source and are kept apart here. Marks after values point to notes of the source that are not given here.

Key:
CNS cell lines [1] = test: cells; details: Homo sapiens; for GI50: read-out: median GI50; for CC50: read-out: median LC50
Prostate cell lines [2] = test system: Prostate cell lines
NSCL cell lines [3] = test system: NSCL cell lines
Renal cell lines [4] = test system: Renal cell lines
Colon cell lines [5] = test: cells; details: for GI50: read-out: median GI50; for CC50: read-out: median LC50
[6] = test system: all the cell lines included in the screen; test: cells; details: for median TGI: all cell lines of the NCI screen
Protocol: cis-AVTP and trans-AVTG were tested in National Cancer Institute's (NCI) 60 cell lines derived from leukemia, melanoma, lung, kidney cancers. Most chemotherapeutic agents currently nd 6-TG, have been tested in this screen and a database he National Institutes of Health. The NCI assigned s-AVTP, and number NSC-722289 to trans-AVTG. tocol used for the cytotoxicity assessment in the NCI e from the National Institutes of Health. Briefly, tumor ma, lung, colon, brain, ovary, breast, prostate, and um containing 5% fetal bovine serum and 2 mM L-glutamine re plated in a 100 μL volume into 96 well microtiter 37° C. in humidified atmosphere supplemented with 5% ach cell line were fixed with trichloroacetic acid for f drug addition (Tz). The drugs, as 400-fold concentrated uted to twice the final maximum test concentration with entamicin. Additional four 10-fold dilutions were made us control. Aliquots (100 μl) of the drug solutions were 100 μl of medium, resulting in the required final drug the plates were incubated at 37° C. in humidified for additional 48 h. The assay was terminated by the w/v) trichloroacetic acid for adherent and suspension minutes at 4° C. The supernatant was discarded, the and air dried. A 100 μl aliquot of 0.4% (w/v) sulforhodamine B (SRB) solution in 1% acetic acid was added to each well, and the plates incubated for 10 minutes at room temperature. After staining, unbound dye was removed by washing five times with 1% acetic acid and the plates air dried. Bound stain was solubilized with 10 mM trizma base, and the absorbance read on a plate reader at a wavelength of 515 nm.
By using time zero (Tz), control growth (C), and test growth in the presence of drug at the five concentration levels (Ti), the percentage growth was calculated at each of the drug concentration levels. Percentage growth inhibition was calculated as:
[(Ti−Tz)/(C−Tz)]×100 for concentrations for which Ti>/=Tz
[(Ti−Tz)/Tz]×100 for concentrations for which Ti<Tz.
Three dose response parameters were calculated for each experimental agent. […] The TGI, the drug concentration resulting in total growth inhibition was calculated from Ti=Tz. The LC50 (the concentration of drug resulting in a 50% reduction in the measured protein at the end of the drug treatment as compared to that at the beginning) indicating a net loss of cells following treatment was calculated from [(Ti−Tz)/Tz]×100=−50. Values were calculated for each of these three parameters if the level of activity is reached; however, if the effect was not reached or was exceeded, the value for that parameter is expressed as greater or less than the maximum or minimum concentration tested.

Prostate cell lines [7] = test: cells; details: for GI50: read-out: median GI50; for CC50: read-out: median LC50
A-498 cells = test: MTT cytotoxicity assay; format: cell-based, human; details: Homo sapiens, A498
Protocol: (§1) Preliminary studies examining the in vitro cytotoxicity of cis-AVTP and trans-AVTG as compared to the parent drugs, were carried out using the 3-[4,5-dimethylthiazol-2-yl]-2,5-diphenyl tetrazolium bromide (MTT) cytotoxicity assay.

ACHN cells = test: MTT cytotoxicity assay; format: cell-based, human; details: Homo sapiens
Protocol: as §1

Melanoma cell lines [8] = test system: Melanoma cell lines
CNS cell lines [9] = test system: CNS cell lines
SN12C = format: cell-based; details: Renal, 48 h
Renal cell lines [10] = test: cells; details: for GI50: read-out: median GI50; for CC50: read-out: median LC50
Breast cell lines [11] = test system: Breast cell lines
Leukemia cell lines [12] = details: for median TGI: Leukemia
Colon cell lines [13] = test system: Colon cell lines
NSCL cell lines [14] = test: cells; details: for GI50: read-out: median GI50; for CC50: read-out: median LC50
Breast cell lines [15] = test: cells; details: for GI50: read-out: median GI50; for CC50: read-out: median LC50
Leukemia cell lines [16] = test: cells; details: for CC50: read-out: median LC50
Melanoma cell lines [17] = test: cells; details: for GI50: read-out: median GI50; for CC50: read-out: median LC50
Ovarian cell lines = test: NCI anticancer screen, by tissue type; details: for median TGI: Ovarian; for GI50: read-out: median GI50; for CC50: read-out: median LC50
SF-268 = details: SF-268, CNS, NCI database, cited from earlier work
HCT-116 = details: HCT-116, Colon, NCI database, cited from earlier work
[18] = read-out: LC50 (the source's name)

SMILES: CC(=O)C=CSc1ncnc2nc[nH]c12 [cis-AVTP, 6-(2-acetylvinylthio) purine]
- GI50 (CNS cell lines [1]): 1.69 µM
- CC50 (CNS cell lines [1]): 52.7 µM
- median TGI (Prostate cell lines [2]): 7.09 µM
- median TGI (NSCL cell lines [3]): 12.2 µM
- median TGI (Renal cell lines [4]): 2.67 µM
- GI50 (Colon cell lines [5]): 1.13 µM
- CC50 (Colon cell lines [5]): 25.3 µM
- GI50 [6]: < 2 µM
- median TGI [6]: 4.56 µM
- CC50 ([6]; read-out: LC50): < 15 µM
- GI50 ([6]; read-out: median GI50): 0.6 µM
- CC50 ([6]; read-out: median LC50): 38.6 µM
- GI50 (Prostate cell lines [7]): 1.69 µM
- CC50 (Prostate cell lines [7]): 54.8 µM
- IC50 (A-498 cells; A-498, 24 h drug incubation): 107 ± 14.7 µM
- IC50 (A-498 cells; A-498, 48 h drug incubation): 24.6 ± 4 µM
- IC50 (A-498 cells; A-498, 72 h incubation, MTT): 8 ± 1.2 µM
- IC50 (A-498 cells; A-498, 96 h drug incubation): 5.5 ± 0.9 µM
- IC50 (ACHN cells; 24 h drug incubation): 58.2 ± 1.7 µM
- IC50 (ACHN cells; 48 h drug incubation): 8.7 ± 0.9 µM
- IC50 (ACHN cells; 72 h incubation, MTT): 3.7 ± 0.7 µM
- IC50 (ACHN cells; 96 h drug incubation): 3.5 ± 0.4 µM
- median TGI (Melanoma cell lines [8]): 3.24 µM
- median TGI (CNS cell lines [9]): 10.7 µM
- GI50 (SN12C; Homo sapiens): 2.03 µM
- CC50 (SN12C; Homo sapiens, read-out: LC50 (the source's name)): 28.1 µM
- TGI (SN12C): 5.75 µM
- GI50 (Renal cell lines [10]): 0.49 µM
- CC50 (Renal cell lines [10]): 10.7 µM
- median TGI (Breast cell lines [11]): 3.98 µM
- median TGI (Leukemia cell lines [12]): 52.5^# μM
- TGI (Leukemia cell lines [12]; leukemia cell lines CCRF-CEM, HL-60(TB), and RPMI-8226): < 5 µM
- median TGI (Colon cell lines [13]): 4.42 µM
- GI50 (NSCL cell lines [14]): 1.59 µM
- CC50 (NSCL cell lines [14]): 53.7 µM
- GI50 (Breast cell lines [15]): 0.55 µM
- CC50 (Breast cell lines [15]): > 100 µM
- GI50 (Leukemia cell lines [16]): < 0.5 µM
- GI50 (Leukemia cell lines [16]; read-out: median GI50): 0.19 µM
- CC50 (Leukemia cell lines [16]): > 100 µM
- GI50 (Melanoma cell lines [17]): 0.48 µM
- CC50 (Melanoma cell lines [17]): 9.58 µM
- median TGI (Ovarian cell lines): 4.55 µM
- GI50 (Ovarian cell lines): 0.91 µM
- CC50 (Ovarian cell lines): 27.7 µM

SMILES: Nc1nc2nc[nH]c2c(=S)[nH]1 [6-TG, 6-thioguanine]
- GI50 (CNS cell lines [1]): 1.28 µM
- CC50 (CNS cell lines [1]): > 100 µM
- median TGI (Prostate cell lines [2]): >100 µM
- median TGI (NSCL cell lines [3]): 24.0 µM
- median TGI (Renal cell lines [4]): 89.2^# μM
- GI50 (Colon cell lines [5]): 1.32 µM
- CC50 (Colon cell lines [5]): > 100 µM
- median TGI [6]: 41.3 µM
- GI50 ([6]; read-out: median GI50): 1.04 µM
- CC50 ([6]; read-out: median LC50): > 100 µM
- GI50 (Prostate cell lines [7]): 1.27 µM
- CC50 (Prostate cell lines [7]): > 100 µM
- IC50 (A-498 cells; A-498, 72 h incubation, MTT): 6.9 ± 4.1 µM
- IC50 (ACHN cells; 72 h incubation, MTT): 2.5 ± 0.8 µM
- median TGI (Melanoma cell lines [8]): 15.3 µM
- GI50 (SF-268): 1.14 µM
- TGI (SF-268): >100 µM
- CC50 (SF-268; [18]): > 100 µM
- median TGI (CNS cell lines [9]): >100 µM
- GI50 (Renal cell lines [10]): 1.14 µM
- CC50 (Renal cell lines [10]): > 100 µM
- median TGI (Breast cell lines [11]): 67.8^# μM
- median TGI (Leukemia cell lines [12]): 19.4 µM
- median TGI (Colon cell lines [13]): 41.2 µM
- GI50 (NSCL cell lines [14]): 0.91 µM
- CC50 (NSCL cell lines [14]): > 100 µM
- GI50 (Breast cell lines [15]): 1.48 µM
- CC50 (Breast cell lines [15]): > 100 µM
- GI50 (Leukemia cell lines [16]; read-out: median GI50): 0.33 µM
- CC50 (Leukemia cell lines [16]): > 100 µM
- GI50 (Melanoma cell lines [17]): 1.13 µM
- CC50 (Melanoma cell lines [17]): > 100 µM
- median TGI (Ovarian cell lines): 53.8 µM
- GI50 (Ovarian cell lines): 0.7 µM
- CC50 (Ovarian cell lines): > 100 µM
- GI50 (HCT-116): 0.53 µM
- TGI (HCT-116): 16.2 µM
- CC50 (HCT-116; [18]): > 100 µM
